The values that follow are results of earlier work, collected in patent US9201077B2 (Colorado State University Research Foundation, priority 2009, dated 2015).

Molecules are shown by their SMILES.

In one data set the test system is antibody used in progesterone assays. The settings on record: conventional progesterone assay.
Regarding `C=CC[C@]1(O)CC[C@H]2[C@@H]3CCC4=CC(=O)CCC4=C3C=C[C@@]21C` [altrenogest], the “cross-reaction with the antibody used in progesterone assays” value is listed as “does not cross-react”.

The subject of another data set is Anti-Progesterone (R4859) Antibody raised against 11α-hemisuccinate progesterone. The following applies: tested by UC Davis Endocrinology Laboratory.
As for `CC(=O)[C@H]1CC[C@H]2[C@@H]3CC[C@H]4CC(=O)CC[C@]4(C)[C@H]3CC[C@]12C` [5α-Pregnane-3,20-dione], the “% Cross Reaction” value is recorded as 12.19%.
Regarding `CC(=O)[C@H]1CC[C@H]2[C@@H]3CCC4=CC(=O)CC[C@]4(C)[C@H]3[C@H](O)C[C@]12C` [11α-OH-Progesterone], the “% Cross Reaction” value is recorded as 40.00%.
Regarding `CC(=O)[C@@]1(O)CC[C@H]2[C@@H]3CCC4=CC(=O)CC[C@]4(C)[C@H]3CC[C@@]21C` [17α-OH-Progesterone], the “% Cross Reaction” value is reported as 0.38%.
With `C[C@H](O)[C@H]1CC[C@H]2[C@@H]3CCC4=CC(=O)CC[C@]4(C)[C@H]3CC[C@]12C` [20α-OH-Progesterone], the “% Cross Reaction” value is recorded as 0.13%.
For the compound `C[C@@H](O)[C@H]1CC[C@H]2[C@@H]3CCC4=CC(=O)CC[C@]4(C)[C@H]3CC[C@]12C` [20β-OH-Progesterone], the “% Cross Reaction” value is reported as 0.13%.
`C[C@]12CCC(=O)C=C1CC[C@@H]1[C@@H]2[C@@H](O)C[C@@]2(C)[C@H]1CC[C@]2(O)C(=O)CO` [Cortisol]: the “% Cross Reaction” value is given as <0.04%.
With `C[C@]12CC[C@@H]3c4ccc(O)cc4CC[C@H]3[C@@H]1CC[C@@H]2O` [Estradiol 17β], the “% Cross Reaction” value is <0.01%.
Consider `C[C@H](O)[C@H]1CC[C@H]2[C@@H]3CC[C@@H]4C[C@H](O)CC[C@]4(C)[C@H]3CC[C@]12C` [Pregnanediol], for which the “% Cross Reaction” value is recorded as <0.01%.
Regarding `CC(=O)[C@H]1CC[C@H]2[C@@H]3CC=C4C[C@@H](O)CC[C@]4(C)[C@H]3CC[C@]12C` [Pregnenolone], the “% Cross Reaction” value is on record as 0.12%.
Consider `CC(=O)[C@H]1CC[C@H]2[C@@H]3CCC4=CC(=O)CC[C@]4(C)[C@H]3CC[C@]12C` [Progesterone], for which the “% Cross Reaction” value is recorded as 100.00%.
`C[C@]12CC[C@H]3[C@@H](CCC4=CC(=O)CC[C@@]43C)[C@@H]1CC[C@@H]2O` [Testosterone]: the “% Cross Reaction” value is reported as <0.01%.
